Data as given in PMC9241302, “Identification of 2-(4-N,N-Dimethylaminophenyl)-5-methyl-1-phenethyl-1H-benzimidazole targeting HIV-1 CA capsid protein and inhibiting HIV-1 replication in cellulo” (BMC Pharmacology & Toxicology, 2022).
Entries after “also recorded” stand apart in the source; their conditions may differ. Where two headings read alike, the source gives them in different places.

How the values were obtained:
HIV-1 NL4-3 Ba-L = experiment: microbe, parasite or virus in culture; format: cell-based; details: for inhibition of HIV-1 replication (in words): U87-CD4-CCR5 cells, serial 1:2 dilutions from 10 µM
Method: Compounds were first dissolved in DMSO to reach a concentration of 20 mM. They were further diluted to a 200 µM working stock and then further diluted to reach a starting concentration of 10 µM in the culture plate. U87-CD4-CCR5 cells were seeded in quadruplicate at 4000 cells/well in a final volume of 100 µL. The next day, 24 µL of the compound was added in serial 1:2 dilutions to the cells. Two hours later, 25 µL of infectious virus (NL4-3 Ba-L) were added to the cells with a TCID50 of 250. AZT at 10 µM was included as an inhibition control. The medium was replenished in the presence of compounds once every 3 to 4 days. The supernatant was collected every 3–4 days and analyzed for virus production by an in-house p24 capture ELISA. IC50 was calculated using “Quest Graph™ IC50 Calculator” (AAT Bioquest, Inc., https://www.aatbio.com/tools/ic50-calculator). Cytotoxicity of the compound was tested on U87-CD4-CCR5 cells in parallel by MTT assay (at the same protocol as in Sect. 3.5 but after 11 days of incubation))[39].

[1] = tested on: HIV-1 reverse transcription (pol viral DNA); experiment: qPCR quantification of reverse transcribed viral DNA in U87-CD4-CCR5 cells; format: cell-based; details: 10 µM, cells preincubated, DNA extracted 48 h post-infection
Method: U87-CD4-CCR5 cells were plated in a 24-wells plate at 1.25 × 10^5 cells per well. […] Total DNA was extracted 48 h post-infection using the AllPrep DNA/RNA Mini Kit (Qiagen, Venlo, Netherlands). […] The following program was used in the LightCycler 480 Real-Time PCR System (Roche, Basel, Switzerland): pre-incubation: 95 °C for 3 min, pre-amplification: 2 cycles of 95 °C for 15 s and 49 °C for 15 s, amplification: 40 cycles of 95 °C for 10 s, 58 °C for 20 s, 72 °C for 30 s, melting curve stage: 95 °C for 5 s, 55 °C for 1 min and then 97 °C with acquisition every 10 °C, cooling stage: 40 °C for 10 s. Serial dilution of the 8E5 cell line which contains 1 copy of HIV-1 proviral DNA per cell was used as a standard curve for viral RT products [46]. […] Results were calculated as the number of copies of Pol per copy of β-actin. Statistical analysis was performed using an unpaired, two-tailed, Mann–Whitney test with GraphPad Prism 7.0 software. Tests were performed in quadruplicate, in two independent experiments.

HIV-1 = details: Table 1, PF74, literature value; read-out: IC50 in U87; cited from earlier work
human MT4 = details: cited from earlier work
[2] = human, microsomes; cited from earlier work
HIV-1 CA [3] = biological target: T1, HIV-1 CA (Human immunodeficiency virus type 1 group M subtype B, UniProt P12493); set-up: the capsid protein (CA) of the Gag polyprotein; made in house; host or cells: Escherichia coli BL21(DE3) pLysS; method as in PMID 30393786; details: PF74 data from the literature, same condition, cited from earlier work
U87 cells = details: cited from earlier work
[4] = tested on: human embryonic kidney cells; set-up: method as in PMID 25512408, PMID 30393786, PMID 24749923, PMID 26492824; details: read-out: EC50 in human embryonic kidney cells (cytotoxicity); cited from earlier work
human TZM-bl = details: cited from earlier work
HIV-1 CA [5] = details: Table 1, PF74, literature value; read-out: Binding affinity; cited from earlier work
HIV-1 CA [6] = biological target: T1, HIV-1 CA; experiment: HIV-1 CA assembly inhibition assay (absorbance at 340 nm); format: biochemical; set-up: the capsid protein (CA) of the Gag polyprotein; made in house; host or cells: Escherichia coli BL21(DE3) pLysS; details: compounds at 25 or 50 µM, CA 5 mg/mL, 30 min
Method: The CA assembly assay was performed in a final volume of 70 µL in 384-well plates, with a final concentration of 5 mg/mL of purified recombinant HIV-1 CA in Phosphate/NaCl Buffer (NaH2PO4/Na2HPO4 50 mM, NaCl 100 mM, pH 7.4), as described for FIV CA [27, 31]. Absorbance was measured at 340 nm every 30 s in a multiplate reader VarioskanTM Flash Multimode Reader (Thermo Scientific, MA, US) at 37 °C for 30 min. The compounds were tested at a fixed initial dose of 25 or 50 µM (at 0.5% DMSO [v/v]) by adding 1 µL of the concentrated ligand to the well before starting the measurement. The controls were CA at 5 mg/mL in only 0.5% DMSO [v/v] and CA without DMSO. The criteria to select active compounds were the observation of at least 50% of assembly inhibition at these doses, based on the reduction of the OD value at 340 nm at the plateau value compared to the controls.

mice = details: cited from earlier work
[7] = cited from earlier work
[8] = Cytotoxicity in murine macrophages (MTT); format: cell-based; details: mouse, J774.1 murine macrophages; Fig. 2 toxicology summary
Method: (§1) TZM-bl cells, U87-CD4-CCR5, murine macrophages (J774.1), and THP-1 monocytes (ATCC®TIB-202™) were grown following ATCC recommendations. Cells were seeded in a 96-well plate (10^4 cells in 200 µL culture medium) and incubated at 37 °C in a 5% CO2 atmosphere for 48 h, to allow cell adhesion before drug testing. For stimulation (THP-1 monocytes), cells were incubated with 100 nM of phorbol 12-myristate 13-acetate (PMA) for 48 h. […] A vehicle for control (0.4% DMSO) and negative wells (cells in medium) was used in each test. […] After removing the medium, formazan crystals were dissolved in 180 µL of DMSO and 20µL of MTT buffer (0.1 M glycine, 0.1 M NaCl, 0.5 mM EDTA, pH 10.5), and the absorbance at 560 nm was measured. […] Tests were performed in triplicate, in two independent experiments.

[9] = Solubility observed in the assays; format: physicochemical; details: for solubility at high concentrations (in words): HIV-1 replication assay
[10] = set-up: method as in PMID 25512408, PMID 30393786, PMID 24749923, PMID 26492824; details: cited from earlier work
HIV-1 CA [11] = biological target: T1, HIV-1 CA; experiment: Binding to HIV-1 CA by isothermal microcalorimetry (ITC); set-up: the capsid protein (CA) of the Gag polyprotein; details: 200 µM
Method: The affinity of compound 696 for HIV-1 CA in vitro was measured by microscale thermophoresis (MST) as described previously for FIV CA [31]. Due to its intrinsic autofluorescence interfering with MST, the binding of compound 314 to CA was measured using isothermal microcalorimetry (ITC) with a Microcal iTC200 calorimeter (Malvern Instruments, Worcestershire, UK). The calorimeter cell contained 200 µL of recombinant HIV-1 CA (kind gifted by Drs Verrier and Coiffier) at 0.78 mg/mL in phosphate buffer (NaH2PO4/Na2HPO4) 50 mM pH 7.5, NaCl 100 mM, 1% DMSO [v/v]. Compound 314 at 200 µM was then injected sequentially into the calorimeter cell (injection #1: 1 µL, injections #2-#20: 2 µL) at 120 s intervals. Data were analyzed using the OriginLab8.5® software according to the manufacturer’s instructions.

[12] = tested on: murine macrophages (J774.1); experiment: Cytotoxicity in murine macrophages (MTT); format: cell-based; details: 50 µM, 24 h
Method: as §1

Cc1cn([C@H]2C[C@H](N=[N+]=[N-])[C@@H](CO)O2)c(=O)[nH]c1=O [AZT, Zidovudine, reference compound]
p24 production (HIV-1 NL4-3 Ba-L; AZT 10 µM inhibition control): No p24 production was detected
inhibition of HIV-1 reverse transcription (pol viral DNA by qPCR) [1]: efficient inhibition

Cc1[nH]c2ccccc2c1CC(=O)NC(Cc1ccccc1)C(=O)N(C)c1ccccc1 (centres unmarked) [PF74]
IC50 (HIV-1): 0.06 µM
EC50 (human MT4): 70 µM
Metabolic stability, half-life (t1/2) [2]: Human liver microsomes, the half-life (t1/2) less than 1 min
Effect in p24 multimerization in vitro (HIV-1 CA [3]): accelerated
Effect in p24 multimerization in vitro (HIV-1 CA [3]; listed as C00001): acceleration
EC50 (U87 cells): 75 µM
EC50 [4]: > 50 µM
EC50 (human TZM-bl): 47 µM
EC50 (human TZM-bl; read-out: EC50 in TZM-bl cells (μM) 48hs, Table 1, PF74, 48hs, literature value): 23.5 µM
Kd (HIV-1 CA [5]): 0.06 to 0.09 µM

C=CCn1c(-c2ccc3ccccc3c2)cs\c1=N/N=C/C=C/c1ccco1 [compound 305]
interference with the assembly of HIV-1 CA in vitro (HIV-1 CA [6]): interference with the assembly
LD50 in mice (oral acute toxicity) (mice): 413 mg/kg
AMES Test (mutagenicity) [7]: non mutagenic
EC50 [8]: 50 µM

C=CCn1c(C(=O)N2CCN(C/C=C/c3ccccc3)CC2)cs/c1=N/N=C\C=C\c1ccco1 [compound 314]
inhibition of HIV-1 replication (in words) (HIV-1 NL4-3 Ba-L): clear dose–response inhibition; also recorded: inhibition only at 10 µM
Oral Rat LD50 (mice; Table S1, 314, not marked as TEST-calculated, Fig. 2 gives mice): >2000 mg/kg
LD50 in mice (oral acute toxicity) (mice): 2000 mg/kg
solubility ([9]; pH 7.4, CA assembly assay, read-out: insolubility at concentrations): > 10 µM
genotoxicity by Micronucleus Test [10]: Not genotoxic; also recorded: no genotoxicity
AMES Test (mutagenicity) [7]: non mutagenic; also recorded: no mutagenicity
specific binding for HIV-1 CA (HIV-1 CA [11]): no specific binding
EC50 [8]: 40 µM

CCOC(=O)c1n(Cc2ccc(N(C)C)cc2)c2ccc([N+](=O)[O-])cc2[n+]1[O-] [compound 553]
interference with the assembly of HIV-1 CA in vitro (HIV-1 CA [6]): interference with the assembly
EC50 [8]: < 50 µM
unspecific cytotoxicity in murine macrophages [12]: 100%

CC(/C=N/N1CCSCC1)=C\c1ccco1 [compound 878]
interference with the assembly of HIV-1 CA in vitro (HIV-1 CA [6]): interference with the assembly
inhibition of HIV-1 replication (in words) (HIV-1 NL4-3 Ba-L): trend towards inhibition
solubility at high concentrations (in words) [9]: solubility problems
EC50 [8]: 50 µM

C=CCn1c(C(=O)O)cs/c1=N\N=C\c1ccc(/C=N/N=c2\scc(C(=O)O)n2CC=C)cc1 [compound 1310]
interference with the assembly of HIV-1 CA in vitro (HIV-1 CA [6]): interference with the assembly
inhibition of HIV-1 replication (in words) (HIV-1 NL4-3 Ba-L): trend towards inhibition
solubility at high concentrations (in words) [9]: solubility problems
EC50 [8]: > 50 µM
